≈ marks a conversion by molar mass, not a printed value. Calls of active or inactive are those of the source. The rule behind the calls is not given here.
Columns and labels:
[1] = test system: Mycobacterium tuberculosis; test: Antitubercular activity against replicating Mycobacterium tuberculosis H37Rv assessed as growth inhibition measured after 7 days incubation by microplate alamar blue assay; format: functional; settings: 168 h
[2] = test system: Mycobacterium tuberculosis; test: Antimycobacterial activity against dormant stage of Mycobacterium tuberculosis H37Ra ATCC 25177 assessed as growth inhibition at 10 uM incubated for 12 days by XRMA method relative to control; format: functional; settings: H37Ra ATCC 25177, 288 h
[3] = test system: CHO-K1; test: Cytotoxicity against CHOK1 cells assessed as cell viability at 8 ug/ml incubated for 24 hrs by MTT assay; format: cell-based, Cricetulus griseus; settings: chinese hamster, cho-k1, 24 h
[4] = test system: Mycobacteroides chelonae; test: Antimycobacterial activity against Mycobacterium chelonae assessed as growth inhibition; format: functional, organism-based
[5] = test system: B16-F10; test: Cytotoxicity against mouse B16F10 cells assessed as cell viability at 10 uM incubated for 24 hrs by MTT assay; format: cell-based; settings: b16-f10, 24 h
[6] = test system: Staphylococcus aureus; test: Antibacterial activity against Staphylococcus aureus ATCC 29213 assessed as growth inhibition incubated for 18 to 24 hrs by broth microdilution based antibiotic susceptibility testing method; format: functional
[7] = test system: Pseudomonas aeruginosa; test: Antibacterial activity against Pseudomonas aeruginosa ATCC 27853 assessed as growth inhibition incubated for 18 to 24 hrs by broth microdilution based antibiotic susceptibility testing method; format: functional
[8] = test system: Klebsiella pneumoniae; test: Antibacterial activity against Klebsiella pneumoniae BAA-1705 assessed as growth inhibition incubated for 18 to 24 hrs by broth microdilution based antibiotic susceptibility testing method; format: functional; settings: ATCC BAA-1705
[9] = test system: Mycobacteroides abscessus; test: Antimycobacterial activity against Mycobacterium abscessus assessed as growth inhibition; format: functional, organism-based
[10] = test system: Escherichia coli; test: Antibacterial activity against Escherichia coli ATCC 25922 assessed as growth inhibition incubated for 18 to 24 hrs by broth microdilution based antibiotic susceptibility testing method; format: functional
[11] = test system: MCF7; test: Cytotoxicity against human MCF7 cells assessed as cell viability at 10 uM incubated for 24 hrs by MTT assay; format: cell-based; settings: mcf7, 24 h
[12] = Selectivity index, ratio of IC50 for CHOK1 cells to MIC for Mycobacterium tuberculosis H37Rv; format: toxicity; settings: hamster, CHO-K1 cells; read-out: Selectivity Index
[13] = test system: Mycolicibacterium fortuitum; test: Antimycobacterial activity against Mycobacterium fortuitum assessed as growth inhibition; format: functional, organism-based
[14] = test system: CHO-K1; test: Cytotoxicity against CHOK1 cells assessed as reduction in cell viability incubated for 24 hrs by MTT assay; format: cell-based; settings: Cricetulus griseus, CHO-K1, 24 h
[15] = test system: Acinetobacter baumannii; test: Antibacterial activity against Acinetobacter baumannii BAA-1605 assessed as growth inhibition incubated for 18 to 24 hrs by broth microdilution based antibiotic susceptibility testing method; format: functional

| SMILES | MIC [1] [µg/mL] | inhibition at 10 µM [2] [%] | further results |
| --- | --- | --- | --- |
| CC(C)c1nc(C(=O)NCc2ccc(Cl)cc2)c(-c2ccc(C#N)cc2)s1 | > 34 |  |  |
| COc1ccc(CCNC(=O)c2nc(C(C)C)sc2-c2ccc3c(c2)OCO3)cc1OC | 5.6 (≈ 12.3 µM) | 84.9 |  |
| CC(C)c1nc(C(=O)NCc2cc(Cl)cc(Cl)c2)c(-c2ccc(C#N)cc2)s1 | > 34 |  |  |
| N#Cc1ccc(-c2sc(C3CCCCC3)nc2C(=O)NCc2cccnc2)cc1 | > 34 |  |  |
| CCOC(=O)c1nc(C2CCCCC2)sc1-c1cnc2ccccc2c1 | 4.5 (≈ 12.3 µM) | 86.5 |  |
| Cc1nc(C(=O)NCc2ccc3c(c2)OCO3)c(-c2ccc(C#N)cc2)s1 | > 34 |  |  |
| CCOC(=O)c1nc(C2CCCCC2)sc1-c1ccc(C#N)cc1 | 2.1 (≈ 6.17 µM) | 90.5 | Activity [3]: Non-Toxic; inhibition [4]: inactive; Activity [5]: Non-Toxic; MIC [6]: 50 µM (≈ 17 µg/mL); MIC [7]: > 50 µM; MIC [8]: > 50 µM; inhibition [9]: inactive; MIC [10]: > 50 µM; Activity [11]: Non-Toxic; selectivity ratio [12]: 35.8; inhibition [13]: inactive; IC50 [14]: 75.2 µg/mL (≈ 221 µM) |
| CC(C)c1nc(C(=O)N[C@H](C)c2cccc3ccccc23)c(-c2ccc(C#N)cc2)s1 | > 34 |  |  |
| CCOC(=O)c1nc(C(C)C)sc1-c1ccc(C#N)cc1 | 1.8 (≈ 5.99 µM) | 82.7 | inhibition [4]: inactive; Activity [5]: Non-Toxic; MIC [6]: > 50 µM; MIC [7]: > 50 µM; MIC [8]: > 50 µM; inhibition [9]: inactive; MIC [10]: > 50 µM; Activity [11]: Non-Toxic; selectivity ratio [12]: 22.4; inhibition [13]: inactive; IC50 [14]: 40.5 µg/mL (≈ 135 µM) |
| C[C@H]1COc2c(N3CCN(C)CC3)c(F)cc3c(=O)c(C(=O)O)cn1c23 [LEVOFLOXACIN] |  |  | MIC [15]: 8 µM (≈ 2.89 µg/mL); MIC [10]: < 30 µM |
| CC(C)c1nc(C(=O)N[C@@H](C)c2ccccc2)c(-c2ccc(C#N)cc2)s1 | 18.7 (≈ 49.8 µM) | 73.2 |  |
| CCOC(=O)c1nc(C(C)C)sc1-c1ccccc1C#N | 15 (≈ 49.9 µM) |  |  |
| CCOC(=O)c1nc(C)sc1-c1ccc(C#N)cc1 | 14.5 (≈ 53.2 µM) | 20.2 |  |
| CCOC(=O)c1nc(C)sc1-c1ccc2c(c1)OCO2 | 13.6 (≈ 46.7 µM) |  |  |
| CC(C)c1nc(C(=O)NCc2ccc(Cl)c(F)c2)c(-c2ccc(C#N)cc2)s1 | > 34 |  |  |
| CC(C)c1nc(C(=O)N2CCOCC2)c(-c2ccc3c(c2)OCO3)s1 | > 34 |  |  |
| Cc1ccc(C(C)NC(=O)c2nc(C(C)C)sc2-c2ccc(C#N)cc2)cc1 (stereo not given) | > 34 |  |  |
| CCOC(=O)c1nc(C(C)C)sc1-c1cccc2cnccc12 | 16.3 (≈ 49.9 µM) |  |  |
| CCOC(=O)c1nc(C(C)C)sc1-c1cnc2ccccc2c1 | 4 (≈ 12.3 µM) | 80.5 | inhibition [4]: inactive; Activity [5]: Non-Toxic; MIC [6]: > 50 µM; MIC [7]: > 50 µM; MIC [8]: > 50 µM; inhibition [9]: inactive; MIC [10]: > 50 µM; Activity [11]: Non-Toxic; selectivity ratio [12]: > 12.5; inhibition [13]: inactive; IC50 [14]: > 50 µg/mL |
| CC(C)c1nc(C(=O)N2CCOCC2)c(-c2ccc(C#N)cc2)s1 | > 34 |  |  |
| Cc1nc(C(=O)N[C@@H](C)c2ccccc2)c(-c2ccc(C#N)cc2)s1 | > 34 | 73.5 |  |
| Cc1nc(C(=O)N2CCOCC2)c(-c2ccc(C#N)cc2)s1 | > 34 |  |  |
| Cc1nc(C(=O)N[C@H](C)c2ccccc2)c(-c2ccc(C#N)cc2)s1 | > 34 | 74 |  |
| COc1ccc(CCNC(=O)c2nc(C(C)C)sc2-c2ccc(C#N)cc2)cc1OC | 5.4 (≈ 12.4 µM) | 89.4 |  |
| CCOC(=O)c1nc(C(C)C)sc1-c1ccc2nccnc2c1 | 8.1 (≈ 24.7 µM) | 19.5 |  |
| CC(C)c1nc(C(=O)N[C@H](C)c2ccccc2)c(-c2ccc3c(c2)OCO3)s1 | 4.9 (≈ 12.4 µM) | 90.9 |  |
| CC(C)c1nc(C(=O)N[C@H](C)c2ccccc2)c(-c2ccc(C#N)cc2)s1 | 9.3 (≈ 24.8 µM) | 86.7 |  |

From ChEMBL document CHEMBL4364263, “Synthesis and biological evaluation of 2,4,5-trisubstituted thiazoles as antituberculosis agents effective against drug-resistant tuberculosis” (Eur J Med Chem, 2019)
